US20240262842A1, “SMALL MOLECULE INHIBITORS OF KRAS G12C MUTANT” (Merck Sharp & Dohme LLC, priority 2021, published 2024)
Where two headings read alike, the source gives them in different places.

Key:
[1] = target: T1, interaction between GMPPNP-bound recombinant K-Ras4B G12C mutant protein and cRAF RAS-binding domain (cRAF-RBD) (Homo sapiens, UniProt P01116, G12C); assay: Inhibitory activity on interaction between KRAS G12C and cRAF (Alpha technology)
T1 construct: His-tag (N)
How it was run: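 Alpha signal measured 1.5 h after adding cRAF-RBD (aa 50-132) and detection reagents to GMPPNP-bound KRAS G12C (aa 1-169) pretreated 1 h at 25° C with compound (pH 7.5 buffer). 0% inhibition = DMSO, 100% = GDP-loaded KRAS; IC50 by curve fit.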

MIA PaCa-2 cells = assay: Growth inhibition activity on KRAS-G12C mutant cell line (CellTiter-Glo 3D); format: cell-based, human; details: MIA PaCa-2, 3-day culture with compound
How it was run: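 IC50 (nM) derived from inhibition of luminescence (CellTiter-Glo 3D) relative to compound-free wells. Cells were seeded in U-bottom plates, grown 1 day, then exposed to compound for 3 days at 37 °C with 0.2% final DMSO.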

[2] = GMPPNP-bound KRAS G12C incubated with compound 25° C. 1 hour, Table 2-1, read-out: IC50
[3] = Homo sapiens, MIA PaCa-2, 72 h, Table 3-1
[4] = IC50, GMPPNP-bound KRAS G12C incubated with compound 25° C. 1 hour, Table 2
[5] = IC50, GMPPNP-bound KRAS G12C incubated with compound 25° C. 1 hour, Table 2-1

Molecule	IC50 [1, 2] [nM]	IC50 (MIA PaCa-2 cells; [3]) [nM]	other results
COCc1nc2c3c(c(C)cc2n1C)-c1cccn2c(C(=O)c4cc(F)c(NC(=O)/C=C/CN[C@H]5CCOC5)c(F)c4)cc(c12)CCN3C (single isomer, unassigned) [Example 106]	18	21.9	
CO[C@H]1CC[C@H](NC/C=C/C(=O)Nc2c(F)cc(C(=O)c3cn4c5c(cccc35)-c3c(C)cc5c(nc(C)n5C)c3OC[C@H](C)C4)cc2F)CC1 (single isomer, unassigned) [Example 24]			IC50 [1, 4]: 1800 nM; IC50 (MIA PaCa-2 cells; Table 3): 1100 nM
CC(C)(C)NC/C=C/C(=O)Nc1c(F)cc(C(=O)c2cn3c4c(cccc24)-c2c(Cl)cccc2OCCC3)cc1F (single isomer, unassigned) [Example 2-1, (E)-4-(tert-butylamino)-N-(4-(11-chloro-5,6-dihydro-4H-benzo[8,9][1,5]oxazonino[7,6,5-hi]indole-1-carbonyl)-2,6-difluorophenyl)but-2-enamide]			IC50 [1, 4]: > 6700 nM; IC50 (MIA PaCa-2 cells; Table 3): 3100 nM
COCc1nc2c3c(c(C(F)(F)F)cc2n1C)-c1cccn2c(C(=O)c4cc(F)c(NC(=O)/C=C/CNC5(C)COC5)c(F)c4)cc(c12)CCO3 (single isomer, unassigned) [Example 99, (E)-N-(2,6-difluoro-4-(10-(methoxymethyl)-9-meth-yl-7-(trifluoromethyl)-13,14-dihydro-9H-imidazo[4″,5″:5′,6′]benzo-[1′,2′:2,3]oxocino[4,5,6-hi]indolizine-2-carbonyl)-phenyl)-4-((3-methyl-oxetan-3-yl)amino)-but-2-enamide]	12.2	9.79	
(E)-N-(2,6-difluoro-4-((S)-6,8,9,12-tetramethyl-12,13-dihydro-8H-imidazo[4″,5″:3′,4′]benzo[1′,2′:7,8][1,4]oxazocino[6,5,4-hi]indole-2-carbonyl)pheny 1)-4-(((1,4r)-4-methoxycyclohexyl)amino)but-2-enamide [Example 20]			IC50 ([1]; GMPPNP-bound KRAS G12C incubated with compound 25° C. 1 hour, Table 2, read-out: IC50): 24 nM; IC50 (MIA PaCa-2 cells; Table 3): 49 nM
COCc1nc2c3c(c(C(F)F)cc2n1C)-c1cccn2c(C(=O)c4cc(F)c(NC(=O)/C=C/CNC5(C)COC5)c(F)c4)cc(c12)CCN3C [Example 224, (E)-N-(4-(7-(difluoromethyl)-10-(methoxymethyl)-9,12-dimethyl-9,12,13,14-tetrahydroimidazo[4″,5″:5′,6′]benzo[1′,2′:2,3]azocino[4,5,6-hi]indolizine-2-carbonyl)-2,6-difluorophenyl)-4-((3-methyloxetan-3-yl)amino)but-2-enamide]	28.2	17.8	
COc1cc2c(nc(C)n2C)c2c1-c1cccn3c(C(=O)c4cc(F)c(NC(=O)/C=C/CN[C@H]5CC[C@H](OC)CC5)c(F)c4)cc(c13)CCN2C [Example 78, (E)-N-(2,6-difluoro-4-(7-methoxy-9,10,12-tri-methyl-9,12,13,14-tetra-hydroimidazo[4″,5″:5′,6′]-benzo[1′,2′:2,3]azocino-[4,5,6-hi]indolizine-2-carbonyl)phenyl)-4-(((1r,4r)-4-methoxycyclo-hexyl)amino)but-2-en-amide]	33.7	6.92	
Cc1cc2c(nc(C)n2C)c2c1-c1cccc3c(C(=O)c4cc(F)c(NC(=O)/C=C/CN[C@H]5C[C@@H]6CC[C@H]5O6)c(F)c4)cn(c13)CCN2C (racemic) [Example 135]		28.9	IC50 [1, 5]: 11 nM
Cc1cc2c(nc(C)n2C)c2c1-c1cccc3c(C(=O)c4cc(F)c(NC(=O)/C=C/CN5CC[C@H]5CO)c(F)c4)cn(c13)CCN2C [Example 132, (S,E)-N-(2,6-difluoro-4-(6,8,9,11-tetramethyl-8,11,12,13-tetrahydro-imidazo[4″,5″:5′,6′]-benzo[1′,2′:5,6][1,4]-diazocino[7,8,1-hi]indole-2-carbonyl)phenyl)-4-(2-(hydroxymethyl)azetidin-1-yl)but-2-enamide]		16.7	IC50 [1, 5]: 10.8 nM
CN1CCc2cc(C(=O)c3cc(F)c(NC(=O)/C=C/CNC4(C)COC4)c(F)c3)n3cccc(c23)-c2c(C(F)(F)F)cc3c(ncn3C3CC3)c21 (single isomer, unassigned) [Example 153, (E)-N-(4-(9-cyclopropyl-12-methyl-7-(trifluoro-methyl)-9,12,13,14-tetra-hydroimidazo[4″,5″:5′,6′]-benzo[1′,2′:2,3]azocino-[4,5,6-hi]indolizine-2-carbonyl)-2,6-difluoro-phenyl)-4-((3-methyloxe-tan-3-yl)amino)but-2-enamide]	31.5	118	
CO[C@H]1CC[C@H](NC/C=C/C(=O)Nc2c(F)cc(C(=O)c3cn4c5c(cccc35)-c3c(Cl)cccc3OCCC4)cc2F)CC1 (single isomer, unassigned) [Example 4-2, (E)-N-(4-(11-chloro-5,6-dihydro-4H-benzo[8,9][1,5]oxazonino[7,6,5-hi]indole-1-carbonyl)-2,6-difluorophenyl)-4-(((1,4r)-4-methoxycyclohexyl)amino)but-2-enamide]			IC50 [1, 4]: 290 nM; IC50 (MIA PaCa-2 cells; Table 3): 260 nM
CC1(NC/C=C/C(=O)Nc2c(F)cc(C(=O)c3cc4c5c(cccn35)-c3c(cc(N5CCCC5=O)cc3C(F)(F)F)OCC4)cc2F)COC1 (single isomer, unassigned) [Example 183, (E)-N-(2,6-difluoro-4-(7-(2-oxopyrrolidin-1-yl)-9-(trifluoromethyl)-3,4-dihydrobenzo[2,3]oxocino-[4,5,6-hi]indolizine-1-carbonyl)phenyl)-4-((3-methyloxetan-3-yl)-amino)-but-2-enamide]	35.2	112	
CN1CCc2cc(C(=O)c3cc(F)c(NC(=O)/C=C/CN4CCC[C@H]4CO)c(F)c3)n3cccc(c23)-c2c(C(F)(F)F)cc3c(ncn3C)c21 [Example 227, (S,E)-N-(4-(9,12-dimeth-yl-7-(trifluoromethyl)-9,12,13,14-tetrahydro-imidazo[4″,5″:5′,6′]benzo-[1′,2′:2,3]azocino[4,5,6-hi]indolizine-2-carbonyl)-2,6-difluorophenyl)-4-(2-(hydroxymethyl)pyrrol-idin-1-yl)but-2-enamide]	34	10.2	
COCCn1c(C)nc2c3c(c(OC)cc21)-c1cccn2c(C(=O)c4cc(F)c(NC(=O)C=CCNC5(C)CC5)c(F)c4)cc(c12)CCS3 [Example 240, (E)-N-(2,6-difluoro-4-(7-methoxy-9-(2-methoxyethyl)-10-methyl-13,14-dihydro-9H-imidazo[4″,5″:5′,6′]benzo[1′,2′:2,3]thiocino[4,5,6-hi]indolizine-2-carbonyl)phenyl)-4-((1-methylcyclopropyl)amino)but-2-enamide]	8.93	14.5	
COc1cc2c(nc(C)n2C)c2c1-c1cccn3c(C(=O)c4cc(F)c(NC(=O)/C=C/CNC5(C)CC5)c(F)c4)cc(c13)CCO2 [Example 194]	10.3	6.38	
COCCn1c(COC)[n+]([O-])c2c3c(c(OC)cc21)-c1cccn2c(C(=O)c4cc(F)c(NC(=O)/C=C/CNC5(C)CC5)c(F)c4)cc(c12)CCN3C [Example 243, (E)-2-(3,5-difluoro-4-(4-((1-methylcyclopropyl)-amino)but-2-enamido)-benzoyl)-7-methoxy-9-(2-methoxyethyl)-10-(methoxymethyl)-12-methyl-9,12,13,14-tetra-hydroimidazo[4″,5″:5′,6′]-benzo[1′,2′:2,3]azocino-[4,5,6-hi]indolizine 11-oxide]	83.2	91.8	
Cc1cc2c(C)n(C)nc2c2c1-c1cccn3c(C(=O)c4cc(F)c(NC(=O)/C=C/CNC5(C)COC5)c(F)c4)cc(c13)CCN2C (single isomer, unassigned) [Example 145, (E)-N-(2,6-difluoro-4-(7,9,10,12-tetramethyl-10,12,13,14-tetrahydro-indolizino[8′,1′:4,5,6]-azocino[3,2-g]indazole-2-carbonyl)phenyl)4-((3-methyloxetan-3-yl)-amino)-but-2-enamide]	72.3	162	
Cn1cnc2c3c(c(C(F)(F)F)cc21)-c1cccn2c(C(=O)c4cc(F)c(NC(=O)/C=C/CN5CCC[C@](C)(O)C5)c(F)c4)cc(c12)CCO3 [Example 196, (S,E)-N-(2,6-difluoro-4-(9-methyl-7-(trifluoro-methyl)-13,14-dihydro-9H-imidazo[4″,5″:5′,6′]-benzo[1′,2′:2,3]oxocino-[4,5,6-hi]indolizine-2-carbonyl)phenyl)-4-(3-hydroxy-3-methylpiper-idin-1-yl)but-2-enamide]	35.1	31.5	
CN1CCc2cc(C(=O)c3cc(F)c(NC(=O)/C=C/CNCC(C)(C)O)c(F)c3)n3cccc(c23)-c2c(C(F)(F)F)cc3c(ncn3C)c21 [Example 112, (E)-N-(4-(9,12-dimethyl-7-(trifluoromethyl)-9,12,13,14-tetrahydro-imidazo[4″,5″:5′,6′]benzo-[1′,2′:2,3]azocino[4,5,6-hi]indolizine-2-carbonyl)-2,6-difluorophenyl)-4-((2-hydroxy-2-methylpropyl)-amino)but-2-enamide]	29.2	10.1	
